Entries after “also recorded” stand apart in the source; their conditions may differ. Read-outs that look alike come from different tables or passages of the source.
Columns and labels:
hERG = target: T1, hERG (Homo sapiens, UniProt Q12809); assay: Patch clamp recording of hERG currents in transfected HEK293 cells; assay type: cell-based
T1 construct: expressed in transfected cells; host or cells: HEK293 (ATCC), polyclonal, stably transfected, G418 selection
Procedure: Caco-2 and HEK293 cells were obtained from the American Type Culture Collection (ATCC, Manasass, Va.) and grown in culture according to the supplier's specifications. In some experiments, HEK293 cells were stably transfected with hERG cDNA and polyclonal cultures were maintained in the presence of 250 μg/ml geneticin (G418).
For electrophysiology recording, a micropipette was pulled from borosilicate glass with the pipette tip resistance between 3˜5 MΩ. For each experiment, polyclonal HEK293 cells stably transfected with hERG cDNA and maintained in 250 μg/ml Geneticin (G418) were plated on 35 mm dishes on the microscope stage and a commercial patch clamp amplifier was used for the whole cell recordings. The tail currents were evoked at 22° C. once every 30 sec by a 3 sec-50 mV repolarizing pulse following a 2 sec+50 mV depolarizing pulse with a hold voltage of −80 mV. A 50 msec depolarized pulse to −50 mV at the beginning of the voltage protocol served as a baseline for calculating the amplitude of the peak tail current. The hERG currents were allowed to stabilize over a 3 min period in the presence of vehicle alone prior to Gamitrinib application. The cells were kept in the test solution until the peak tail current was stable (<5% change) for ˜5 sweeps or for a maximum of 6 min, whichever came first. Peak tail amplitudes were plotted as a function of the sweep number. Five peak tail current measurements at the steady state before Gamitrinib application were averaged and used as the control current amplitude. Four or five peak tail current measurements at the steady state after Gamitrinib application were averaged and used as the remaining current amplitude after inhibition by the test article. The % inhibition of the test article was calculated from the following equation: […]

CYP2B6 = CYP2B6 (Homo sapiens, UniProt P20813); assay: CYP inhibition in liver microsomes, CYP2B6; assay type: in vitro ADME; settings: human liver microsomes 0.1 mg/mL
Sequence of CYP2B6 (P20813 whole entry, the tested form may be a part): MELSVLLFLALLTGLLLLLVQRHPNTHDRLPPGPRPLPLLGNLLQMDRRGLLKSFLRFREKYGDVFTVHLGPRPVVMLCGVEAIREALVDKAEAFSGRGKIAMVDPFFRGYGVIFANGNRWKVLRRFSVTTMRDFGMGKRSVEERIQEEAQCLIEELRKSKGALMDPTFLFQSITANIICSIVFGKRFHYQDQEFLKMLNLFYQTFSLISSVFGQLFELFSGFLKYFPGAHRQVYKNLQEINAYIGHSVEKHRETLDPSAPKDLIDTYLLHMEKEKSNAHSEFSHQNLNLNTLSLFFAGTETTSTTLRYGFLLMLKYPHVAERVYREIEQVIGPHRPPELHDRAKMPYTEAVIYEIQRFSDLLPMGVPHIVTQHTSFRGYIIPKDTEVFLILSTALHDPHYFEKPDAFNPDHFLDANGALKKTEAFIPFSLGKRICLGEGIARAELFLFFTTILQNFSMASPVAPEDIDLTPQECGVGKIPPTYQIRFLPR

[1] = Toxicity in beagle dogs, IV infusion for 36 d; assay type: in vivo; settings: beagle, dog, in vivo, iv, dogs; for AUC(0-t): read-out: AUC0-24
Procedure: (§1) Eighteen male and female (5-6 mo old) purebred beagle dogs (Cumberland, Va.) were acclimated for 47 d (20 to 26° C., relative humidity 30-70%, 10 or greater air changes/h, and a 12-h light/dark cycle) prior to study initiation. Animals were given water ad libitum and Certified Canine Diet #5007 (PMI Nutrition International Certified LabDiet®) for 4 to 5 h each day. At study initiation, animal body weights ranged from 8.6 to 11.5 kg for males and 6.0 to 9.4 kg for females. At least 1 week prior to initiation of dosing, animals were fasted overnight, anesthetized, and a catheter attached to a subcutaneous vascular access port was surgically implanted into a jugular vein. Animals were acclimated to infusion jackets prior to catheter implantation surgery. Animals were infused with sterile saline at a dose rate of 5 mL/h when the vascular access ports were accessed and when animals were connected to the infusion system (except when dosed with the test or vehicle control article). The patency of each catheter was checked as needed. Prednisolone tablets were administered orally at 2 mg/kg the night prior to dosing. Diphenhydramine (5 mg/kg; IM injection 0.1 mL/kg, 50 mg/mL) was administered prior to dosing and post the start of infusion (d 1 only). Male and female dogs received dose levels of Gamitrinib of 1.25, 3.33 and 6.25 mg/kg/dose formulated as indicated above during a 1 h infusion on d 1, 8, 11, 15, 18, 22, 25, 29, 32, and 36 at a volume of 2 mL/kg. The vehicle control was as above. […] Dosing was stopped, and 23 of 24 animals were administered additional diphenhydramine, 11 were administered Flunixin meglumine and buprenorphine, and 6 were administered acepromazine. Symptoms subsided in all animals after completion of these interventions. As a result of these observations, the polysorbate levels, which were increased from 0.025% (w/v) to 0.125% (w/v) to minimize precipitation, were returned to the original concentrations; 2 mg/kg prednisone was administered orally the night prior to dosing; and the diphenhydramine pretreatment dose was updated to 5 mg/kg 15 to 30 min prior to dosing. Detailed observations were conducted for each animal up to seven times during the predose phase, prior to dosing on d 1, 8, 15, 22, 29, and 36 of the dosing phase, and on d 1, 7, and 14 of the recovery phase. Blood samples (1 mL) were collected via the cephalic vein 5, 15, and 30 min and 1, 4, 8, and 24 h post the end of infusion on d 8 and 36 of the dosing phase. Formalin-fixed and paraffin-embedded tissue samples collected at the end of the study (d 39) were processed for histologic examination.

beagle dogs = assay: Toxicity in beagle dogs, IV infusion for 36 d; assay type: in vivo
Procedure: as §1

[2] = 3.33 mg/kg/dose (NOAEL), d 36 of dosing, both sexes
[3] = 6.25 mg/kg/dose (HNSTD), d 36, both sexes

T1 sequence (Q12809 whole entry): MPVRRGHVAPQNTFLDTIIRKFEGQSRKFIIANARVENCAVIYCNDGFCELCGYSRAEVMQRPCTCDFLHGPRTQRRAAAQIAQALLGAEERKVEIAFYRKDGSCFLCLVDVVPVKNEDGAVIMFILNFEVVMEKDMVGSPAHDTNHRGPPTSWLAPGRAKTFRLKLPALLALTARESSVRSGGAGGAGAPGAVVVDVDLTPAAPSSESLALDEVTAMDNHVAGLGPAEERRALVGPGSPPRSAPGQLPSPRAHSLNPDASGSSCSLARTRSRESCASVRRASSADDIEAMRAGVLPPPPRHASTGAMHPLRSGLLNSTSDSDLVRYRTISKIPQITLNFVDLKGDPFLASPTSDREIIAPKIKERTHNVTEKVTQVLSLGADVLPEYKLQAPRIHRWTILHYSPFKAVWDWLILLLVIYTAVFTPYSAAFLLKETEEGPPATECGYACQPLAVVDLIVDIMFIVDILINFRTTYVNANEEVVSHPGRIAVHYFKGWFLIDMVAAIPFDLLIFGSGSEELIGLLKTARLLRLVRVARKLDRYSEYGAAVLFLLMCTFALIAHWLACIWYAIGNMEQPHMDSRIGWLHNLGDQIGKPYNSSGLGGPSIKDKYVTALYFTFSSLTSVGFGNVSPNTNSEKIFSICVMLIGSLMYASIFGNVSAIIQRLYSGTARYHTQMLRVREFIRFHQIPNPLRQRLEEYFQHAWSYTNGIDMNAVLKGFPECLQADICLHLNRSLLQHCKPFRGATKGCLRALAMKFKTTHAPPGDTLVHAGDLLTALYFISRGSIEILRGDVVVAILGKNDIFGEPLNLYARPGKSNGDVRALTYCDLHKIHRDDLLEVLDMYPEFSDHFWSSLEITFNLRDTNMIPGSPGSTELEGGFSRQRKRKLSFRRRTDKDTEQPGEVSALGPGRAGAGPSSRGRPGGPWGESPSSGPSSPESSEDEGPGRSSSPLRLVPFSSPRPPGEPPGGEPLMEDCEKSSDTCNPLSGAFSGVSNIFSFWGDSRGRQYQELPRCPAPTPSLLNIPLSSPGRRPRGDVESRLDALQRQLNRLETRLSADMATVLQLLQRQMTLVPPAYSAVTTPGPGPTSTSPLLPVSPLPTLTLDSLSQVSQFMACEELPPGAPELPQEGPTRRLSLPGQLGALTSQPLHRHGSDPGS

CO[C@H]1/C=C\C=C(/C)C(=O)NC2=CC(=O)C(NCCCCCC[P+](c3ccccc3)(c3ccccc3)c3ccccc3)=C(C[C@@H](C)C[C@H](OC)[C@H](O)[C@@H](C)/C=C(\C)[C@@H]1OC(N)=O)C2=O [Gamitrinib, 17-Demethoxy-17-((6-(triphenylphosphonio)hexyl)amino)geldanamycin]
hERG IC50 relative to IC50 of inhibition of tumor growth in NCI 60-cell line screen (hERG; hERG IC50 3.5 μM higher than tumor IC50): up to 20 fold
inhibition at 0.5 µM (hERG; human, HEK293 cells stably transfected with hERG, pH 7.4, 0.5 μM, transfected HEK293 cells, mean±SD): -0.68 ± 3.95%
inhibition at 1 µM (hERG; human, HEK293 cells stably transfected with hERG, pH 7.4, 1 μM, transfected HEK293 cells, mean±SD): 11.7 ± 6.51%
inhibition at 5 µM (hERG; human, HEK293 cells stably transfected with hERG, pH 7.4, 5 μM, transfected HEK293 cells, mean±SD): 66 ± 6.78%
inhibition at 10 µM (hERG; human, HEK293 cells stably transfected with hERG, pH 7.4, 10 μM, transfected HEK293 cells, mean±SD): 81.8 ± 1.88%
IC50 (hERG; patch-clamp, transfected HEK293 cells, read-out: IC50 of hERG inhibition): 3.5 µM
IC50 (CYP2B6): 16 µM
Cmax [1, 2]: 560 ± 404 ng/mL
AUC(0-t) [1, 2]: 1740 ± 713 ng·h/mL
Cmax [1, 3]: 1260 ± 556 ng/mL
AUC(0-t) [1, 3]: 3290 ± 1090 ng·h/mL
NOAEL (beagle dogs; beagle dogs, IV for 36 d): 3.33 mg/kg/dose
highest non-severely toxic dose (HNSTD) (beagle dogs; beagle dogs, IV for 36 d): 6.25 mg/kg/dose
Bone marrow and liver parameters (beagle dogs; dog, in vivo): unremarkable
changes in organ weights (beagle dogs; dog, in vivo): No Gamitrinib-related changes
serum urea nitrogen and creatinine (beagle dogs; dogs (both sexes), 6.25 mg/kg/dose, 6.25 mg/kg): trend of increased serum urea nitrogen and creatinine; also recorded: modest elevation of urea nitrogen and creatinine concentrations
kidney microscopic finding (beagle dogs; dogs, 6.25 mg/kg/dose, reversible during recovery): slight to moderate kidney tubular degeneration/regeneration
alterations in body weight or other clinical observations (beagle dogs; dogs, 1.25, 3.33 and 6.25 mg/kg/dose): no alterations
Body weight (beagle dogs; female dogs, 3.33 mg/kg, day 1): 7.6 ± 0.9 kg
Body weight (beagle dogs; female dogs, 3.33 mg/kg, day 8): 7.6 ± 0.9 kg
Body weight (beagle dogs; female dogs, 3.33 mg/kg, day 15): 7.6 ± 1.06 kg
Body weight (beagle dogs; female dogs, 3.33 mg/kg, day 22): 7.5 ± 0.75 kg
Body weight (beagle dogs; female dogs, 3.33 mg/kg, day 29): 7.6 ± 0.7 kg
Body weight (beagle dogs; female dogs, 3.33 mg/kg, day 36): 7.5 ± 0.8 kg
Body weight (beagle dogs; female dogs, 6.25 mg/kg, day 1): 7.7 ± 0.57 kg
Body weight (beagle dogs; female dogs, 6.25 mg/kg, day 8): 7.7 ± 0.62 kg
Body weight (beagle dogs; female dogs, 6.25 mg/kg, day 15): 7.4 ± 0.54 kg
Body weight (beagle dogs; female dogs, 6.25 mg/kg, day 22): 7.2 ± 0.6 kg
Body weight (beagle dogs; female dogs, 6.25 mg/kg, day 29): 7.3 ± 0.58 kg
Body weight (beagle dogs; female dogs, 6.25 mg/kg, day 36): 7.3 ± 0.59 kg
Body weight (beagle dogs; male dogs, 3.33 mg/kg, day 1): 10.1 ± 1.1 kg
Body weight (beagle dogs; male dogs, 3.33 mg/kg, day 8): 10 ± 1.04 kg
Body weight (beagle dogs; male dogs, 3.33 mg/kg, day 15): 9.9 ± 1.15 kg
Body weight (beagle dogs; male dogs, 3.33 mg/kg, day 22): 10.2 ± 1.21 kg
Body weight (beagle dogs; male dogs, 3.33 mg/kg, day 29): 10.1 ± 1.21 kg
Body weight (beagle dogs; male dogs, 3.33 mg/kg, day 36): 10 ± 1.36 kg
Body weight (beagle dogs; male dogs, 6.25 mg/kg, day 1): 9.9 ± 0.83 kg
Body weight (beagle dogs; male dogs, 6.25 mg/kg, day 8): 9.8 ± 0.85 kg
Body weight (beagle dogs; male dogs, 6.25 mg/kg, day 15): 9.5 ± 0.57 kg
Body weight (beagle dogs; male dogs, 6.25 mg/kg, day 22): 9.2 ± 0.57 kg
Body weight (beagle dogs; male dogs, 6.25 mg/kg, day 29): 9.2 ± 0.46 kg
Body weight (beagle dogs; male dogs, 6.25 mg/kg, day 36): 9.1 ± 0.58 kg

Reference: patent publication US20230277569A1, “Compositions and Methods for Treating, Ameliorating and/or Preventing Cancer and Kits for the Same” (priority 2022, published 2023)
